Measured values as given in US9708314B2, “Heterocyclic amide compound” (NISSAN CHEMICAL INDUSTRIES, LTD., priority 2013, dated 2017).

Columns and labels:
Format in all cases: in vivo
Cyperus difformis = experiment: Test Example 3: herbicidal effect by application to foliage (Wagner pot, water depth 0.1-0.5 cm); settings: Nineteenth Table; application to foliage; application herbicide amount 320 g/ha
Procedure, shortened: (§1)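 Alluvial soil in 1/10000 are Wagner pots, sown and grown 14 days in a 25–30 °C greenhouse. An emulsifiable concentrate diluted in water to the set dose (g/ha) was sprayed on stems and leaves. Effect scored three weeks later on a 0–5 scale: 5 = ≥90% herbicidal ratio, 0 = ≤5%.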

Leptochloa chinensis = experiment: as above; settings: Nineteenth Table; application to foliage; application herbicide amount 320 g/ha
Procedure, shortened: as §1

[1] = test system: Echinochloa crus-galli var. crus-galli; experiment: as above; settings: Nineteenth Table; application to foliage; application herbicide amount 320 g/ha
Procedure, shortened: as §1

[2] = test system: Echinochloa oryzacola Vasing.; experiment: Test Example 1: herbicidal activity, application before weed generation in submerged conditions; settings: Application herbicide amount 320 g/ha; Seventeenth Table
Procedure, shortened: (§2)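 Rating, on a six-step scale from almost no effect (0) to almost completely withered (5), was made three weeks after pre-emergence treatment. Treatment was surface application to flooded pots at g/ha rates, with plants kept at 25° C. to 30° C.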

Monochoria vaginalis = experiment: as above; settings: Application herbicide amount 320 g/ha; Seventeenth Table
Procedure, shortened: as §2

Scirpus juncoides = experiment: as above; settings: Application herbicide amount 320 g/ha; Seventeenth Table
Procedure, shortened: as §2

[3] = test system: directly sowed Oryza sativa; experiment: Test Example 3: effect on crop by application to foliage (Wagner pot, water depth 0.1-0.5 cm); settings: Nineteenth Table; application to foliage; application herbicide amount 320 g/ha
Procedure, shortened: as §1

Digitaria ciliaris = experiment: Test Example 4: herbicidal effect by application to foliage (diluvial soil, plastic box); settings: Application herbicide amount 320 g/ha
Procedure, shortened: (§3)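 Emulsion-formulated compound, diluted to a predetermined g/ha dose, applied by small sprayer to leaves and stems of 14-day-old seedlings grown in sterilized diluvial soil. Effect rated on 0–5 herbicidal-ratio scale three weeks on.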

Galium spurium = experiment: as above; settings: Application herbicide amount 320 g/ha
Procedure, shortened: as §3

Row | SMILES | E (herbicidal effect grade) (Cyperus difformis) | D (herbicidal effect grade) (Leptochloa chinensis) | H (herbicidal effect grade) [1] | A: Echinochloa oryzicola Vasing. (herbicidal effect grade) [2] | C: Monochoria vaginalis (herbicidal effect grade) (Monochoria vaginalis) | B: Scirpus juncoides (herbicidal effect grade) (Scirpus juncoides) | b (effect on crop grade) [3] | F (Digitaria ciliaris) | Q (Galium spurium)
1 | Cc1nnc(NC(=O)c2ccc(C(F)(F)F)n3c(C=O)nnc23)o1 [1-068] | 5 (Herbicidal ratio of 90% or more (almost completely withered)) | 5 (Herbicidal ratio of 90% or more (almost completely withered)) | 5 (Herbicidal ratio of 90% or more (almost completely withered)) | 2 (Herbicidal ratio of 20% or more and less than 40%) | 3 (Herbicidal ratio of 40% or more and less than 70%) | 3 (Herbicidal ratio of 40% or more and less than 70%) | 1 (Herbicidal ratio of 5% or more and less than 20%) | 5 (Herbicidal ratio of 90% or more (almost completely withered)) | 3 (Herbicidal ratio of 40% or more and less than 70%)
2 | COc1ccc(Cc2nnc3c(C(=O)Nc4nnc(C)o4)ccc(C(F)(F)F)n23)cc1 [1-069] | 5 (Herbicidal ratio of 90% or more (almost completely withered)) | 5 (Herbicidal ratio of 90% or more (almost completely withered)) | 5 (Herbicidal ratio of 90% or more (almost completely withered)) | 5 (Herbicidal ratio of 90% or more (almost completely withered)) | 3 (Herbicidal ratio of 40% or more and less than 70%) | 4 (Herbicidal ratio of 70% or more and less than 90%) | 1 (Herbicidal ratio of 5% or more and less than 20%) | 5 (Herbicidal ratio of 90% or more (almost completely withered)) | 3 (Herbicidal ratio of 40% or more and less than 70%)
3 | COc1cc(OC)cc(-c2nnc3c(C(=O)Nc4nnc(C)o4)ccc(C(F)(F)F)n23)c1 [1-070] | 5 (Herbicidal ratio of 90% or more (almost completely withered)) | 5 (Herbicidal ratio of 90% or more (almost completely withered)) | 4 (Herbicidal ratio of 70% or more and less than 90%) | 5 (Herbicidal ratio of 90% or more (almost completely withered)) | 5 (Herbicidal ratio of 90% or more (almost completely withered)) | 5 (Herbicidal ratio of 90% or more (almost completely withered)) | 0 (Herbicidal ratio of 5% or less (almost no effect)) | 4 (Herbicidal ratio of 70% or more and less than 90%) | 3 (Herbicidal ratio of 40% or more and less than 70%)
4 | Cc1nnc(NC(=O)c2ccc(C(F)(F)F)n3c(-c4cc(Cl)cc(Cl)c4)nnc23)o1 [1-071] | 5 (Herbicidal ratio of 90% or more (almost completely withered)) | 3 (Herbicidal ratio of 40% or more and less than 70%) | 0 (Herbicidal ratio of 5% or less (almost no effect)) | 4 (Herbicidal ratio of 70% or more and less than 90%) | 4 (Herbicidal ratio of 70% or more and less than 90%) | 5 (Herbicidal ratio of 90% or more (almost completely withered)) | 0 (Herbicidal ratio of 5% or less (almost no effect)) | 1 (Herbicidal ratio of 5% or more and less than 20%) | 1 (Herbicidal ratio of 5% or more and less than 20%)
